Source: paper PMC5515969, “Effects of 31 FDA approved small-molecule kinase inhibitors on isolated rat liver mitochondria” (Archives of Toxicology, 2016)
Where two headings read alike, the source gives them in different places.

Experiments:
RCC I–V = assay: Activities of RCC I–V, overall statements; format: biochemical, rat; conditions: submitochondrial particles; for RCCs inhibited: up to 100-fold Cmax or highest testable concentration
Description: KIs were incubated with submitochondrial particles (1 mg/ml) for 15 min and then RCC I–V activities measured. […] The activities of DMSO-treated samples (controls) were set as 1. […] The difference between the activity from rotenone-containing buffer and rotenone-absent buffer was considered as RCC I activity. […] For measuring RCC I/V and II activity, the changes in absorbance at 340 and 600 nm, respectively, were determined every 1 min for 6 min. For measuring RCC III and RCC IV, the changes in absorbance at 550 nm were measured every 10 s for 2 min.

[1] = system: isolated rat liver mitochondria; assay: Mitochondrial ROS production (CM-H2DCFDA); conditions: for ROS measured by CM-H2DCFDA at 1XCmax / ROS measured by CM-H2DCFDA at 2.5XCmax / ROS measured by CM-H2DCFDA at 5XCmax / ROS measured by CM-H2DCFDA at 10XCmax / ROS measured by CM-H2DCFDA at 20XCmax / ROS measured by CM-H2DCFDA at 30XCmax / ROS measured by CM-H2DCFDA at 50XCmax / ROS measured by CM-H2DCFDA at 100XCmax: DMSO treated samples set as 1; for effect on ROS production: highest tested concentrations
RCC III = RCC III activity in submitochondrial particles; format: biochemical, rat; design: key to RCC III at 100XCmax: activity relative to DMSO-treated controls (control set as 1 = 100%); conditions: for RCC activity III: 15 min, DMSO-treated = 100
In short: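 Kinase inhibitors were preincubated 15 min with submitochondrial particles (1 mg/ml) before complex activities were measured. RCC I was the rotenone-sensitive portion (activity without minus with rotenone). RCC I/V was read at 340 nm and RCC II at 600 nm every 1 min for 6 min. RCC III and IV were read at 550 nm every 10 s for 2 min. Activities are normalized to DMSO controls set as 1.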

[2] = ref product labeling, cited from earlier work; for Labeling for cardiotoxicity: BBW: black box warning, W&P: Warnings and Precautions
[3] = system: isolated rat liver mitochondria; assay: Mitochondrial toxicity, any endpoint, intact mitochondria and submitochondrial particles; format: biochemical; conditions: for lowest concentration causing significant mitochondrial toxicity: any endpoint; for mitochondrial injury: concentrations equal to 100-fold Cmax
In short: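 Rat liver mitochondria isolated by differential centrifugation in sucrose/Tris-MOPS/EGTA buffer pH 7.4, adjusted to 1 mg/ml protein before treatment. Kinase inhibitors added at 1:1000 dilution of stock; final DMSO 0.1%, with 0.1% DMSO controls.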

[4] = Solubility of DMSO stock for 100X/50X Cmax testing; format: physicochemical; conditions: precipitation of DMSO stock
Excerpt: (§1) Supplement 204_2016_1918_MOESM3_ESM.xlsx, sheet "Sheet1" | column: 100 Cmax; 50 Cmax; note

[5] = design: method as in product labeling; conditions: ref product labeling, cited from earlier work
[6] = Solubility of drug in DMSO stock / reaction buffer at multiples of Cmax; format: physicochemical
Excerpt: as §1

SMILES | RCCs inhibited (RCC I–V) | lowest concentration triggering ROS overproduction [1] | ROS measured by CM-H2DCFDA at 1XCmax [1] | ROS measured by CM-H2DCFDA at 2.5XCmax [1] | ROS measured by CM-H2DCFDA at 5XCmax [1] | ROS measured by CM-H2DCFDA at 10XCmax [1] | ROS measured by CM-H2DCFDA at 20XCmax [1] | ROS measured by CM-H2DCFDA at 30XCmax [1] | ROS measured by CM-H2DCFDA at 50XCmax [1] | ROS measured by CM-H2DCFDA at 100XCmax [1] | effect on ROS production [1] | RCC III at 100XCmax (RCC III) | Labeling for cardiotoxicity [2] | Potential for cardiotoxicity (based on labeling) [2] | lowest concentration causing significant mitochondrial toxicity [3] | note (DMSO stock) [4] | mitochondrial injury [3] | further results
Cc1cc(Nc2ncc(Cl)c(Nc3ccccc3S(=O)(=O)C(C)C)n2)c(OC(C)C)cc1C1CCNCC1 [Ceritinib] | all five RCCs | 50 fold Cmax | 0 | 0 | 0 | 0 | 0 | 0 | 2.51±0.21 | 1.93±0.49 | significantly ROS production | 68.48±6.59 | W&P:QT Interval Prolongation; Bradycardia | 1 |  |  |  | RCC activity III (RCC III; 50-fold Cmax): 103.80 ± 5.19 % of control; RCC activity III (RCC III; 100-fold Cmax): 68.48 ± 6.59 % of control
CC(C)(C)c1nc(-c2cccc(NS(=O)(=O)c3c(F)cccc3F)c2F)c(-c2ccnc(N)n2)s1 [Dabrafenib] | no effects on RCC activities | 50 fold Cmax | 0 | 0 | 0 | 0 | 0 | 0 | 2.23±0.44 | 1.80±0.16 | significantly ROS production | 0 | W&P: Cardiomyopathy | 1 | 5 fold Cmax |  |  | 
CC[C@H](Nc1ncnc2[nH]cnc12)c1nc2cccc(F)c2c(=O)n1-c1ccccc1 [Idelalisib] |  |  | 0 | 0 | 0 | 0 | 0 | 0 | 0 | 0 |  | 0 |  | 0 |  | 464 mM will precipitate | mitochondrial injury was induced | 
CNC(=O)c1cc(Oc2ccc(NC(=O)Nc3ccc(Cl)c(C(F)(F)F)c3)c(F)c2)ccn1 [Regorafenib] | RCC II |  | 0 | 0 | 0 | 0 |  |  |  |  | neither of them affected ROS production |  |  |  | equal to the Cmax |  | mitochondrial injury was induced | lowest concentration inhibiting RCCs (RCC I–V): 10 fold Cmax; Labeling for cardiotoxicity ([5]; BBW: black box warning, W&P: Warnings and Precautions): W&P: Cardiac Ischemia and Infarction; Potential for cardiotoxicity (based on labeling) [5]: 1; note (solubility) [6]: 808 mM will precipitate; RCC activity III (RCC III; 10-fold Cmax): 90.31 ± 13.61 % of control
CC(=O)c1c(C)c2cnc(Nc3ccc(N4CCNCC4)cn3)nc2n(C2CCCC2)c1=O.Cl [palbociclib hydrochloride] |  |  | 0 | 0 | 0 | 0 | 0 | 0 | 0 | 0 |  | 0 |  | 0 |  | 100X will precipitate |  | 
